Source: patent US20080254993A1, “Use of abscisic acid analogs to enhance growth control” (priority 2007, published 2008)

How the values were obtained:
Format in all cases: in vivo, Penncross creeping bentgrass
[1] = test system: creeping bentgrass; assay: Golf course green field study on creeping bentgrass with PBI-429: turfgrass height, soil moisture, turf quality (Example 2); details: for Soil moisture (in words) / Turfgrass height (in words): trinexapac-ethyl 25 ppm, PBI-429 50 ppm, alone or combined; for Turf quality: visual 0-9 scale, 9 best
Method: (§1) Field studies were conducted at the nursery green or the practice green at Countryside golf course (Mundelein, Ill.). Both greens were sand based and growing Penncross creeping bentgrass. Grass was managed with typical Illinois golf course management practices.
(§2) Chemical solutions were prepared with distilled water. Tween 20 (0.05% v/v) was used as the surfactant when necessary. Trinexapac-ethyl (commercial product Primo Maxx, 11.3% active ingredient) was purchased from Syngenta Crop Protection Inc. (Greensboro, N.C.). ABA analogs, 8′ acetylene-ABA, acid (PBI-524), 8′ acetylene-ABA, ester (PBI-429), 8′ cyclopropane ester (PBI-696), or Tetralone, first carbon tail acetylene, ester (PBI-702), were obtained from Plant Biotechnology Institute, National Research Council of Canada (Saskatoon, Saskatchewan, Canada).
(§3) Chemical solutions were foliar applied to the turfgrass canopy at the rate of 4-gallons/1000 square foot (or 0.163 L/m^−2) immediately after finishing the preparation of solutions. After treatment, turfgrasses were arranged in a randomized complete block experimental design. Turfgrass quality, turfgrass height or clip fresh weight was measured on assigned dates. Turfgrass quality was visually rated on a 0-9 scale based on the color, uniformity, and density of the grass with 0 as the worst and 9 as the best. Turfgrass height was measured as the distance between canopy surface and soil. Clippings were collected form each plot; all plots were cut to a uniform height.
(§4) All experiments were randomized complete block experimental design. Data were analyzed by analysis of variance. Duncan's new multiple range tests at α=0.05 were used for mean separations.
Trinexapac-ethyl (25 ppm) or PBI-429 (50 ppm) were one time foliar applied alone or in combination to creeping bentgrass in the golf course green to investigate their effect on turfgrass quality, growth inhibition and soil moisture.

[2] = test system: creeping bentgrass; assay: Golf course green field study on creeping bentgrass with PBI-702: turfgrass height, soil moisture, turf quality (Example 3); details: for Soil moisture / Turfgrass height / Turf quality: 25 ppm trinexapac-ethyl alone; for Turf quality: visual 0-9 scale, 9 best
Method: as §1, §2, §3, §4
Trinexapac-ethyl (25 ppm) or PBI-702 (50 ppm) were one time foliar applied alone or in combination to creeping bentgrass in the golf course green to investigate their effect on turfgrass quality, growth inhibition and soil moisture.

[3] = test system: creeping bentgrass; assay: Golf course green field study on creeping bentgrass with PBI-696: growth rate, turfgrass quality (Example 4); details: 4 days after treatment, trinexapac-ethyl (25 ppm) alone
Method: as §1
Chemical solutions were prepared with distilled water. Tween 20 (0.05% v/v) was used as the surfactant when necessary. Trinexapac-ethyl (commercial product Primo Maxx, 11.3% active ingredient) was purchased from Syngenta Crop Protection Inc. (Greensboro, N.C.). […]
Chemical solutions were foliar applied to the turfgrass canopy at the rate of 4-gallons/1000 square foot (or 0.163 L/m^−2) immediately after finishing the preparation of solutions. […] Turfgrass quality, turfgrass height or clip fresh weight was measured on assigned dates. […] Turfgrass height was measured as the distance between canopy surface and soil. […]
All experiments were randomized complete block experimental design. Data were analyzed by analysis of variance. […]
Trinexapac-ethyl (25 ppm) and PBI-696 (5 or 50 ppm) were one time foliar applied in combination to creeping bentgrass in the golf course green. Turfgrass quality and growth rate were measured 4 days after treatment.

[4] = 4 days after treatment, 50 ppm PBI-429 alone
[5] = 7 days after treatment, 50 ppm PBI-429 alone
[6] = 38 days after treatment, 50 ppm PBI-429 alone
[7] = 4 days after treatment, 25 ppm trinexapac-ethyl alone
[8] = 7 days after treatment, 25 ppm trinexapac-ethyl alone
[9] = 38 days after treatment, 25 ppm trinexapac-ethyl alone

Compound: C#CC1(C)CC(=O)C=C(C)C1(O)/C=C/C(C)=C\C(=O)OC (stereo not shown) [PBI-429, 8′ acetylene-ABA, ester]
- Soil moisture [1, 4]: 13.3%
- Turfgrass height [1, 4]: 6.7 mm
- Soil moisture (in words) ([1]; 4 days after treatment): increase soil moisture
- Turfgrass height (in words) ([1]; 4 days after treatment): reduced turfgrass height more than the combination of trinexapac-ethyl and PBI-429
- Soil moisture [1, 5]: 13.1%
- Turfgrass height [1, 5]: 6.3 mm
- Turf quality [1, 5]: 7.1
- Soil moisture (in words) ([1]; 7 days after treatment): increase soil moisture
- Turfgrass height (in words) ([1]; 7 days after treatment): reduced turfgrass height similarly
- Soil moisture [1, 6]: 12.9%
- Turfgrass height [1, 6]: 5.5 mm
- Turf quality [1, 6]: 8.0

Compound: CCOC(=O)C1CC(=O)C(=C(O)C2CC2)C(=O)C1 (stereo not shown) [trinexapac-ethyl, reference compound]
- Soil moisture ([2]; 4 days after treatment): 11.2%
- Turfgrass height ([2]; 4 days after treatment): 7.3 mm
- Reducing growth or maintaining soil moisture (in words) ([2]; 4 days after treatment, trinexapac-ethyl 25 ppm, PBI-702 50 ppm, alone or combined): ineffective at reducing growth or maintaining soil moisture
- Soil moisture ([2]; 7 days after treatment): 12.7%
- Turfgrass height ([2]; 7 days after treatment): 6.5 mm
- Turf quality ([2]; 7 days after treatment): 7.3
- Reducing growth (in words) ([2]; 7 days after treatment, trinexapac-ethyl 25 ppm, PBI-702 50 ppm, alone or combined): effective at reducing growth
- Soil moisture ([2]; 38 days after treatment): 12.4%
- Turfgrass height ([2]; 38 days after treatment): 6.0 mm
- Turf quality ([2]; 38 days after treatment): 7.6
- Soil moisture [1, 7]: 11.2%
- Turfgrass height [1, 7]: 7.3 mm
- Turfgrass height (in words) ([1]; 4 days after treatment): did not reduce creeping bentgrass height
- Soil moisture [1, 8]: 12.7%
- Turfgrass height [1, 8]: 6.5 mm
- Turf quality [1, 8]: 7.3
- Soil moisture (in words) ([1]; 7 days after treatment): increase soil moisture
- Turfgrass height (in words) ([1]; 7 days after treatment): reduced turfgrass height similarly
- Soil moisture [1, 9]: 12.4%
- Turfgrass height [1, 9]: 6.0 mm
- Turf quality [1, 9]: 7.6
- Soil moisture (in words) ([1]; 38 days after treatment): no longer effective
- Turfgrass height (in words) ([1]; 38 days after treatment): no longer effective
- Growth rate [3]: 549 mg dry weight m^−2 day^−1
- Turfgrass quality ([3]; visual 0-9 scale, 9 best): 8.0
